# Legend:
# [1] = system: Tyrosinase; assay: Tyrosinase hinderance effect; type: biochemical, Mushroom; details: 37° C., 10 minutes, absorbance 475 nm; concentration not given
# Protocol: Tyrosinase enzyme is that extracted from Mushroom and used the product of SIGMA Company. At first, tyrosine being the substrate was dissolved in the distilled water to make 0.3 mg/ml of solution and 1.0 ml of each solution was put in the tube, and then, 1.0 ml of potassium-phosphate buffer solution (0.1 mol concentration, pH 6.8) and 0.7 ml of the distilled water were added.
# Each sample liquid, 0.2 ml, which was prepared by mixing the enzyme-treated saponin fraction derived from the root of camellia sinensis of the above Example 1 of the present invention in ethanol solution in the proper concentration was put in the reaction liquid and then was reacted in 37° C. incubator for 10 minutes. At this time, the control was prepared by adding only 0.2 ml of solution, instead of each of sample liquid, ascorbic acid was used as the positive control. 0.1 ml of 2500 units/ml tyrosinase solution was added to the reaction liquid and reacted in 37° C. incubator for 10 minutes. The tube with the reaction liquid was put in the ice water to stop the reaction by quenching and the absorbance at the wavelength of 475 nm was determined with the photoelectric spectrophotometer, and then the result was represented in the below Table 21. Each of tyrosinase hinderance effect was calculated by the below mathematical formula 5.
# [2] = target: T1, elastase (Sus scrofa, UniProt P00772); assay: Inhibition of elastase activity; type: biochemical; details: EGCG 250 μM as positive control; 25° C., 15 minutes, absorbance 415 nm
# T1 construct: purchased Sigma Aldrich E0127
# Protocol: An ability hindering elastase activity of the enzyme-treated saponin fraction derived from the root of Camellia sinensis was determined in comparison with EGCG. The elastase and substrate as used were commercially purchased from Sigma Aldrich in […]0127), and the saponin fraction was used as the enzyme-treated saponin fraction derived from the root of Camellia sinensis roots as obtained from Example 1. 50 μL of Test material as represented in the below Table 1 and 20 μg/mL elastase·50 μL of solution of type III were mixed with that prepared with […] Tris-HCl buffer (pH 8.0) in 96-well plate. 250 μM of EGCG was used as a positive control, and non-treated group as a negative control used the distilled water. […] After completing the reaction, the absorption at the wavelength of 415 nm was determined. […] A: No addition of the experimental sample, Absorbance at the wavelength of 415 nm with the addition of enzyme B: No addition of the experimental sample, Absorbance at the wavelength of 415 nm without the addition of enzyme C: Addition of the experimental sample, Absorbance at the wavelength of 415 nm with the addition of enzyme D: Addition of the experimental sample, Absorbance at the wavelength of 415 nm without the addition of enzyme
# [3] = system: B16/F10 melanoma cell; assay: Inhibition of melanin generation in B16/F10 melanoma cell; type: cell-based; details: sample comprising 0.001 wt % of test material, cultured 3 days
# Protocol: The sample comprising 0.001 wt % of the saponin fraction derived from the root of camellia sinensis of the above Example 1 and kojic acid, respectively, as the test material, was added to the culture of B16/F10 melanoma cell (Korean cell strain bank) at the constant concentration and cultured for 3 days, washed with PBS, dissolved with 1N NaOH and the absorbance was determined at 405 nm. At this time, the cell added no test material was considered as the control and the degree for hindering the melanin generation of each test material was determined by comparing the contents of melanin in the control. The inhibition rate of melanin generation was calculated according to mathematical formula 6 as below and its result was represented in Table 22.
# [4] = target: T2, 5α-reductase (Homo sapiens, UniProt P31213); assay: Inhibition of 5α-reductase activity, [14C]testosterone to DHT in HEK293-5αR2 cell; type: cell-based; details: 2 hours, negative control 48.0
# T2 construct: 3xFLAG; expressed in transfected cells; host or cells: HEK293
# T2 sequence (P31213 1-254): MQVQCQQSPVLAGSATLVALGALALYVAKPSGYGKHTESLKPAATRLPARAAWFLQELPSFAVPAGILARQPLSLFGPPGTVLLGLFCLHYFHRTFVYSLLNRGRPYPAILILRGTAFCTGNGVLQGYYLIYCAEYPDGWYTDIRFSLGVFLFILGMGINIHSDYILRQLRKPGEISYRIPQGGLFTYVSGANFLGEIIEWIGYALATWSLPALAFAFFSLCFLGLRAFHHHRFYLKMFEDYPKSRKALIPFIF
# Protocol: In order to identify the effect for inhibiting 5α-reductase activity, a ratio of [^14C]testosterone changed into [^14C]dihydrotestosterone (DHT) in HEK293-5αR2 cell was determined. […] The next day, new medium with the enzyme substrate and inhibitor was changed. 0.05 μCi [^14C]testosterone (Amersham Pharmacia biotech, UK) as the substrate of the medium was used.
# Thereafter, the culture media was collected and steroid was extracted with 800 μl of ethylacetate and then, after separating the organic solvent layer of the top and drying it, the remaining residue was dissolved with 50 μl of ethylacetate and developed it by using ethylacetate-hexane (1:1) as a solvent on Silica plastic sheet kieselgel 60 F254.
# [5] = system: collagenase (MMP-1); assay: Collagenase (MMP-1) generation in human fibroblast, ELISA; type: cell-based; details: saponin fraction 30 μg/ml for 24 hours, non-treated group = 100
# Protocol: Fibroblast of a human was placed in 96-well plate (96-well microtiter plate) with Dulbecco's Modified Eagle's Media (DMEM) containing 2.5% fetal bovine serum to be 5,000 cells/well, and was cultured at 5% CO2, at the temperature of 37° C. of incubator to grow to about 70˜80% confluency. The saponin fraction derived from the root of Camellia sinensis of the above Example 1 was treated for 24 hours in a concentration of 30 μg/ml, and then the cell culture was collected.
# The degree of the collagenase generation for the cell culture collected by using the commercially available collagenase determination Apparatus (AmershamPharmacia Corporation in U.S.A., Catalog #: RPN 2610) was determined. At first, the collected cell culture was placed in 96-well plate evenly covered with the first collagenase antibody and antigen-antibody reaction was performed in thermostat container for three hours. […]
# The absorbance of 96-well plate representing yellow color was determined by using Absorptiometer at 405 nm, the degree of collagenase synthesis was calculated by the below Mathematical formula 2, and the result was shown in Table 2 as below. In this case, the absorbance for the reaction of the cell culture collected from the group without treating with the composition was used as the control.
# [6] = system: procollagen type I; assay: Promotion of collagen biosynthesis in fibroblast, procollagen type I ELISA; type: cell-based; details: 10 ng/ml, 24 hours, non-treated group = 100
# Protocol: In order to investigate the promoting effect of the collagen biosynthesis, the enzyme-treated saponin fraction derived from the root of camellia sinensis of the present invention was determined in comparison with TGF-β. At first, fibroblast was seeded as 10^5 cells per a well in 24-well plate and cultured until growing to about 90% confluency. After incubating it with non-serum DMEM medium for 24 hours, it was treated with 10 ng/ml of the saponin fraction derived from the root of camellia sinensis of the above Example 1 and TGF-β dissolved in the non-serum medium, respectively and incubated in CO2 incubator for 24 hours. The supernatant of them was taken and it was examined as to whether procollagen was increased or not by using procollagen type I ELISA kit. The result is represented in Table 8, and the ability for synthesizing the collagen was compared by considering that the non-treated group was 100.
# T1 sequence (P00772 27-266): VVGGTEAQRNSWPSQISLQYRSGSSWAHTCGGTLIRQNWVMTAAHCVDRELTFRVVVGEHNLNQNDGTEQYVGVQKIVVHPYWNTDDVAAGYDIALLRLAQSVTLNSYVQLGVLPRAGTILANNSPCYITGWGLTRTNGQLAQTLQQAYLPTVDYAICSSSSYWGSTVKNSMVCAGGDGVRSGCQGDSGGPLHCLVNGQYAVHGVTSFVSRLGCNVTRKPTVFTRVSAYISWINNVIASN
molecule,measurement,setting,value
O=C1O[C@H]([C@@H](O)CO)C(O)=C1O [Ascorbic acid],Tyrosnase hinderance rate (%),[1],52%
O=C(O[C@@H]1Cc2c(O)cc(O)cc2O[C@@H]1c1cc(O)c(O)c(O)c1)c1cc(O)c(O)c(O)c1 [EGCG],Degree of the inhibiton (%) of elastase activity,[2],65%
O=c1cc(CO)occ1O [Kojic acid],Inhibition rate of melanin generation (%),[3],53%
"CC(C)(C)NC(=O)[C@H]1CC[C@H]2[C@@H]3CC[C@H]4NC(=O)C=C[C@]4(C)[C@H]3CC[C@]12C [Positive control, finasteride]",Conversion rate (%) of testosterone into dihydrotestosterone,[4],27.6%
CC1=C(/C=C/C(C)=C/C=C/C(C)=C/C(=O)O)C(C)(C)CCC1 [Retinoic acid],Degree of the expression (%) of collagenase,[5],75%
TGF-β: comparison substance for collagen biosynthesis,Ability for synthesizing collagen (%),[6],183.5%
